From PubChem BioAssay (NCI)
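Growth conditions: 96-well plates. Treatment: test compound, 48 hours, 5 concentrations. Analysis: linear interpolation between bracketing concentrations; unreached endpoints set to highest concentration. GI50 marks 50% less growth. The concentration for full growth arrest is given as TGI.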

What was measured:
Test in all cases: DTP human tumour cell line panel, 48 h
[1] = system: 786-0 renal
[2] = system: A498 renal
[3] = system: A549 NSCLC
[4] = system: ACHN renal
[5] = system: BT-549 breast
[6] = system: CAKI-1 renal
[7] = system: CCRF-CEM leukemia
[8] = system: COLO 205 colon
[9] = system: DU-145 prostate
[10] = system: EKVX NSCLC
[11] = system: HCC-2998 colon
[12] = system: HCT-116 colon
[13] = system: HCT-15 colon
[14] = system: HL-60(TB) leukemia
[15] = system: HOP-62 NSCLC
[16] = system: HOP-92 NSCLC
[17] = system: HS 578T breast
[18] = system: HT29 colon
[19] = system: IGROV1 ovarian
[20] = system: K-562 leukemia
[21] = system: KM12 colon
[22] = system: LOX IMVI melanoma
[23] = system: M14 melanoma
[24] = system: MALME-3M melanoma
[25] = system: MCF7 breast
[26] = system: MDA-MB-231 breast
[27] = system: MDA-MB-435
[28] = system: MDA-MB-468 breast
[29] = system: MOLT-4 leukemia
[30] = system: NCI-H226 lung
[31] = system: NCI-H23 lung
[32] = system: NCI-H460 lung
[33] = system: NCI-H522 lung
[34] = system: NCI/ADR-RES ovarian
[35] = system: OVCAR-3 ovarian
[36] = system: OVCAR-4 ovarian
[37] = system: OVCAR-5 ovarian
[38] = system: OVCAR-8 ovarian
[39] = system: PC-3 prostate
[40] = system: RPMI-8226 leukemia
[41] = system: RXF 393 renal
[42] = system: SF-268 CNS
[43] = system: SF-295 CNS
[44] = system: SF-539 CNS
[45] = system: SK-MEL-2 melanoma
[46] = system: SK-MEL-28 melanoma
[47] = system: SK-MEL-5 melanoma
[48] = system: SK-OV-3 ovarian
[49] = system: SN12C renal
[50] = system: SNB-19 CNS
[51] = system: SNB-75 CNS
[52] = system: SW-620 colon
[53] = system: T-47D breast
[54] = system: TK-10 renal
[55] = system: U251 CNS
[56] = system: UACC-257 melanoma
[57] = system: UACC-62 melanoma
[58] = system: UO-31 renal

Molecule `COc1ccc(-c2nc3cc(C)ccc3n2CC(=O)N=Nc2c(O)[nH]c3ccccc23)cc1` has a GI50 [1] of 12.7 µM, a TGI [1] of 26 µM and a GI50 [2] of 11.8 µM. It also gave a TGI [2] of 25.7 µM, a GI50 [3] of 1.88 µM and a TGI [3] of 4.02 µM. The GI50 [4] was 3.03 µM, the TGI [4] was 11.9 µM and the GI50 [5] was 1.77 µM. The TGI [5] was 4.98 µM, the GI50 [6] was 2.86 µM and the TGI [6] was 11.6 µM. It also gave a GI50 [7] of 3.54 µM, a TGI [7] of 17.4 µM and a GI50 [8] of 3.73 µM. For the same molecule, the TGI [8] was 14 µM, the GI50 [9] was 3.57 µM and the TGI [9] was 14 µM. For the same molecule, the GI50 [10] was 3.67 µM, the TGI [10] was 15.5 µM and the GI50 [11] was 13.1 µM. The TGI [11] was 26.1 µM, the GI50 [12] was 1.86 µM and the TGI [12] was 3.71 µM. The GI50 [13] was 3.66 µM, the TGI [13] was 14.5 µM and the GI50 [14] was 5.5 µM. The TGI [14] was 29.2 µM, the GI50 [15] was 3.7 µM and the TGI [15] was 18.2 µM. It also gave a GI50 [16] of 1.94 µM, a TGI [16] of 6.3 µM and a GI50 [17] of 2.27 µM. For the same molecule, the TGI [17] was 7.12 µM, the GI50 [18] was 1.82 µM and the TGI [18] was 3.52 µM. For the same molecule, the GI50 [19] was 11.9 µM, the TGI [19] was 25 µM and the GI50 [20] was 3.23 µM. The TGI [20] was 43.5 µM, the GI50 [21] was 3.96 µM and the TGI [21] was 16 µM. The GI50 [22] was 6.32 µM, the TGI [22] was 20.8 µM and the GI50 [23] was 2.31 µM. It also gave a TGI [23] of 5.4 µM, a GI50 [24] of 2.17 µM and a TGI [24] of 4.42 µM. The GI50 [25] was 2.17 µM, the TGI [25] was 5.7 µM and the GI50 [26] was 2.06 µM. The TGI [26] was 4.64 µM, the GI50 [27] was 2.47 µM and the TGI [27] was 6.24 µM. For the same molecule, the GI50 [28] was 2.26 µM, the TGI [28] was 5.87 µM and the GI50 [29] was 3.65 µM. It also gave a TGI [29] of 15.8 µM, a GI50 [30] of 1.88 µM and a TGI [30] of 4.13 µM. The GI50 [31] was 4.15 µM, the TGI [31] was 15.8 µM and the GI50 [32] was 2.17 µM. For the same molecule, the TGI [32] was 4.87 µM, the GI50 [33] was 4.68 µM and the TGI [33] was 19.5 µM. It also gave a GI50 [34] of 2.58 µM, a TGI [34] of 6.66 µM and a GI50 [35] of 1.85 µM. For the same molecule, the TGI [35] was 4.14 µM, the GI50 [36] was 2.17 µM and the TGI [36] was 5.41 µM. For the same molecule, the GI50 [37] was 2.4 µM, the TGI [37] was 8.1 µM and the GI50 [38] was 2.19 µM. The TGI [38] was 4.87 µM, the GI50 [39] was 2.42 µM and the TGI [39] was 7.01 µM. The GI50 [40] was 6.69 µM, the TGI [40] was 28.8 µM and the GI50 [41] was 1.55 µM. For the same molecule, the TGI [41] was 3.71 µM, the GI50 [42] was 2.52 µM and the TGI [42] was 9.61 µM. For the same molecule, the GI50 [43] was 5.4 µM, the TGI [43] was 18.8 µM and the GI50 [44] was 1.67 µM. It also gave a TGI [44] of 3.08 µM, a GI50 [45] of 10.3 µM and a TGI [45] of 23.5 µM. The GI50 [46] was 1.71 µM, the TGI [46] was 3.26 µM and the GI50 [47] was 2.61 µM. The TGI [47] was 10.6 µM, the GI50 [48] was 2.32 µM and the TGI [48] was 6.06 µM. For the same molecule, the GI50 [49] was 1.71 µM, the TGI [49] was 3.83 µM and the GI50 [50] was 4.11 µM. For the same molecule, the TGI [50] was 15.3 µM, the GI50 [51] was 1.55 µM and the TGI [51] was 4.33 µM. The GI50 [52] was 3.03 µM, the TGI [52] was 16.3 µM and the GI50 [53] was 3.15 µM. It also gave a TGI [53] of 17.8 µM, a GI50 [54] of 10.5 µM and a TGI [54] of 23.7 µM. It also gave a GI50 [55] of 2.86 µM, a TGI [55] of 9.2 µM and a GI50 [56] of 2.38 µM. It also gave a TGI [56] of 6.76 µM, a GI50 [57] of 2.14 µM and a TGI [57] of 6.96 µM. It also gave a GI50 [58] of 12.2 µM and a TGI [58] of 24.8 µM.
